Each structure is given as a SMILES string.

We go through 3 compounds from patent publication US12178224B1, “Use of gamma-quaternary ammonium butyrate compound in preparation of an animal feed additive” (ANIPHA TECHNOLOGIES PTY LTD, priority 2019, dated 2024).

For one assay, the system named is porkers. Kind of assay: Effect on the production performance of porkers (breeding test). It is filed as in vivo. The conditions noted are these: 1000 ppm in basal diet, 28 days; for FCR (feed conversion ratio): ADFI/ADG. An excerpt:
90 head of “duroc×landrace×Large Yorkshire” three-way cross lean-type pigs with similar weights having an average weight of 80 kg were randomly divided into 3 treatment groups, each group having 3 repetitions, and each repetition having 10 pigs, half male and half female. The pigsty and appliances were sterilized before testing. During the test, the piglets were fed in separate pigpens under the same feeding and management condition in the same pigsty. During the test, the test pigs ate and drank freely, and were fed twice a day. Each test group is a control group (Group I) and test groups II to III, respectively. Wherein, the control group was fed with a basal diet only, and the test groups II to III were fed with diets that were supplemented with 1000 ppm of different γ-quaternary ammonium butyrate compounds on the basis of the basal diet, specifically as shown in Table 1.
During the entire feeding process, no additional antioxidant components or growth promoters were added for each test group. The test period is 28 days, with each repetition as a unit, the pigs were weighed on the 28th day of the test after not stopping water but stopping feeding for 12 hours to calculate the average daily feed intake (ADFI, g/d*head), average daily gain (ADG, g/d*head) and feed conversion ratio (FCR) for each test group. The calculation formulas are as follows: Average daily feed intake=(total amount of feeds-remaining amount of feeds)/(test days×number of pigs per repetition); Average daily gain=(average weight at the end of the test-average weight at the beginning of the test)/test days; Feed conversion ratio=average daily feed intake/average daily gain.

Another assay deals with broilers. Kind of assay: Effect on the production performance of broilers (breeding test). The format is in vivo, Chinese three-yellow-feather broilers. The conditions noted are these: 600 ppm in basal diet, 20 days; for FCR (feed conversion ratio): ADFI/ADG. Here is the method:
A single-factor random design was adopted for the test. 360 of one-day-old Chinese three-yellow-feather broilers with similar weights having an average weight of 50 g were randomly divided into 3 treatment groups, each group having 6 repetitions, half male and half female, and each repetition having 20 Chinese three-yellow-feather broilers. The henhouse and appliances were sterilized before testing. During the test, the cage rearing was carried out in the same henhouse under the same feeding and management condition. The basal diet is mainly a corn-soybean meal, and no additional antioxidant components or growth promoters were added during the entire feeding process. Each test group is a control group (Group I) and test groups II to III, respectively. Wherein, the control group was fed with the basal diet only, and the test groups II to III were fed with basal diets that were added with 600 ppm of different γ-quaternary ammonium butyrate compounds.
The test period was 20 days in total. The test broilers were free to drink and eat, and were fed twice a day. With each repetition as a unit, the test broilers were weighed at the age of 21 days (stopping feeding for 12 hours, without stopping water) to count the consumption of the test broilers, calculate the average daily feed intake (ADFI, g/d*number of broilers), average daily gain (ADG, g/d*number of broilers) and feed conversion ratio (FCR) of each group of test broilers. The calculation formulas are as follows: Feed conversion ratio (FCR)=average daily feed intake/average daily gain.

The subject of the next assay is tilapia. The note with it: L-carnitine in basal diet, compared with the blank Control group; cited from earlier work.

For the compound `CCOC(=O)C[C@@H](O)C[N+](C)(C)C` [ethyl L-carnitine bromide, ethyl (R)-3-hydroxy-4-(trimethylammonium) butyrate bromide], in the assay with porkers, the “ADFI (average daily feed intake)” value is 2624 g/d * head, the “ADG (average daily gain)” value is 788 g/d * head and the “FCR (feed conversion ratio)” value came to 3.33. Also, in the assay with broilers, the “ADFI (average daily feed intake)” value is reported as 31.34 g/d * number of broilers, the “ADG (average daily gain)” value was 13.00 g/d * number of broilers and the “FCR (feed conversion ratio)” value is on record as 2.41.
On to `C[N+](C)(C)C[C@H](O)CC(=O)[O-]` [L-carnitine], for which the “weight gain rate reduced” value in the assay on tilapia is 1.2%.
Consider `C[N+](C)(C)C[C@H](O)CC(=O)OCc1ccccc1` [benzyl L-carnitine chloride], for which, in the assay with porkers, the “ADFI (average daily feed intake)” value is on record as 2560 g/d * head, the “ADG (average daily gain)” value worked out at 790 g/d * head and the “FCR (feed conversion ratio)” value was found to be 3.24. Besides, in the assay on broilers, the “ADFI (average daily feed intake)” value was 32.18 g/d * number of broilers, the “ADG (average daily gain)” value is reported as 13.46 g/d * number of broilers and the “FCR (feed conversion ratio)” value is reported as 2.39.
